Measured values: PMC11684029, “Discovery of VU6024578/BI02982816: An mGlu1 Positive Allosteric Modulator with Efficacy in Preclinical Antipsychotic and Cognition Models” (Journal of Medicinal Chemistry, 2024)
Values joined by “and” are separate entries in the source; they are usually repeats but may differ in a detail not shown here. Equal entries are not always repeated.

Experiments:
rats = assay: MK-801 induced disruption of novel object recognition; format: in vivo; conditions: rat, p.o.
Experimental: Based on our previous work with the mGlu1 PAM 4,[6]−[9],[14]−[19] we first evaluated the ability of 19d to reverse MK-801 disruptions of novel object recognition (NOR) in rats (Figure 6).
Figure 6 Rat MK-801 induced disruption of novel object recognition and reversal by VU6024578 (19d). MK-801 (0.5 mg/kg IP) induced a robust disruption of NOR, which was dose-dependently reversed by oral administration (10% tween 80) of 19d.
The animals are habituated to the novel object arenas for 1 day prior to testing. This is accomplished by placing the animal in the arena with no objects for 10 min and then placed back into the home cage. The arena is then cleaned with 70% ethanol in between animals. The day of the test the animals are habituated to the dosing room for 2 h. The animals were administered VU6024578 (1–10 mg/kg p.o.) or vehicle (10% Tween 80) and were placed back into their homecage for 60 min. The animals were then injected with MK-801 (0.075 mg/kg 1 mL/kg s.c.) and placed back in the homecage for 30 min. […] The activity of the animals are recorded and the time spent exploring each of the objects is scored by a blinded observer. Recognition index is determined by subtracting […] divided by total time spent exploring.

[1] = intrinsic clearance, predicted hepatic clearance; format: in vitro ADME, human; conditions: in vitro predicted hepatic clearance
Experimental: Human or rat hepatic microsomes (0.5 mg/mL) and 1 μM test compound were incubated in 100 mM potassium phosphate pH 7.4 buffer with 3 mM MgCl2 at 37 °C with constant shaking. After a 5 min preincubation, the reaction was initiated by addition of NADPH (1 mM). At selected time intervals (0, 3, 7, 15, 25, and 45 min), aliquots were taken and subsequently placed into a 96-well plate containing cold acetonitrile with internal standard (50 ng/mL carbamazepine). Plates were then centrifuged at 3000 rcf (4 °C) for 10 min, and the supernatant was transferred to a separate 96-well plate and diluted 1:1 with water for LC/MS/MS analysis. The in vitro half-life (T1/2, min, eq 1), intrinsic clearance (CLint, mL/min/kg, eq 2) and subsequent predicted hepatic clearance (CLhep, mL/min/kg, eq 3) was determined employing the following equations: [drawing 2] 1 where k represents the slope from linear regression analysis of the natural log percent remaining of test compound as a function of incubation time [drawing 3] 2
^ascale-up factors: of 20 (human) or 45 (rat) [drawing 4] 3 where Qh (hepatic blood flow, mL/min/kg) is 21 (human) or 70 (rat).

[2] = brain exposure in rat AHL Cmax versus Ctrough study; format: in vivo
Experimental: Based on these positive behavioral data and the clear PK/PD relationship tied to achieving free brain levels at, or above, the mGlu1 PAM EC50, we next wanted to define the role of Cmax versus Ctrough drug (19d) concentrations in driving the PK/PD relationship. To accomplish this, pretreatment times and doses were calculated based upon previous PK (see Supporting Information Figure S3)[20] data to target free brain concentrations at and below the in vitro EC50 at the time of amphetamine challenge. Rats were pretreated with 3 mg/kg 19d or vehicle after habituation to the locomotor chambers are described in Figure 9A. Rats pretreated with 19d (10–60 mg/kg) or vehicle were administered compound prior to starting the amphetamine-induced hyperlocomotion experiment as depicted in Figure 9B-D. Ambulations were evaluated for 90 min post amphetamine treatment for all dosing groups. Pretreatment of 19d, chamber habituation, amphetamine treatment and ambulation recording times are outlined for each dosing group in Figure 9. Blood and brain samples were obtained at the end of testing (EOT) to determine 19d levels at the end of the study (Table 6).
The terminal free brain concentrations for this dosing group were 40 nM. […]

satellite PK for rat AHL = format: in vivo; conditions: 2.5-h end of study; for concentration at 2.5 h: brain, oral, read-out: free brain concentration
Experimental: Here, administration of 0.75 mg/kg IP of amphetamine induced a robust hyperlocomotive state in rats (>1200 beam breaks), which was dose-dependently reversed by oral administration of 19d. […] Considering the longer time point for exposure and the results, mGlu1 has sufficient target coverage and PK/PD is established for this paradigm.[24]

[3] = metabolite identification; format: in vitro ADME; conditions: ± NADPH; for metabolites of the furanyl ring: 60 min; for parent in 60 min samples: UV peak areas
Experimental: (§1) Across species, 19d had acceptable fraction unbound in both plasma (fu (plasma): 0.03 (human), 0.041 (rat), 0.025 (cyno), 0.039 (dog) and 0.056 (mouse)) and brain (fu (brain): 0.034 (rat) and 0.081 (mouse)).
Figure 5 Metabolite identification of VU6024578 (19d) in rat and human liver microsomes. […] Thus, we incubated 19d in rat and human liver microsomes (with and without NADPH) for 60 min and monitored by both extracted ion and UV detection for the production of metabolites and consumption of parent.

[4] = plasma protein binding, equilibrium dialysis; format: in vitro ADME, rat; conditions: fraction unbound
Experimental: The protein binding of each compound was determined in plasma via equilibrium dialysis employing RED Plates (ThermoFisher Scientific, Rochester, NY). Plasma was added to the 96 well plate containing test compound and mixed thoroughly for a final concentration of 5 μM. Subsequently, an aliquot of the plasma-compound mixture was transferred to the cis chamber (red) of the RED plate, with an phosphate buffer (25 mM, pH 7.4) in the trans chamber. The RED plate was sealed and incubated for 4 h at 37 °C with shaking. At completion, aliquots from each chamber were diluted 1:1 with either plasma (cis) or buffer (trans) and transferred to a new 96 well plate, at which time ice-cold acetonitrile containing internal standard (50 ng/mL carbamazepine) (2 volumes) was added to extract the matrices. The plate was centrifuged (3000 rcf, 10 min) and supernatants transferred and diluted 1:1 (supernatant: water) into a new 96 well plate, which was then sealed in preparation for LC/MS/MS analysis. Each compound was assayed in triplicate within the same 96-well plate. Fraction unbound was determined using the following equation [drawing 1]

[5] = predicted hepatic clearance; format: in vitro ADME, dog
From the text: as §1

With Cn1nc(-c2ccnn2C)cc1CNC(=O)c1cc(-c2ccco2)ccc1Cl [Compound 19d, 2-Chloro-N-((1,2′-dimethyl-1H,2’H-[3,3′-bipyrazol]-5-yl)methyl)-5-(furan-2-yl)benzamide] the “minimum effective dose (MED), MK-801 disrupted NOR” value (rats) was 10 mg/kg, the “CLhep, human” value [1] was 16 mL/min/kg and 15.8 mL/min/kg and the “Cmax over rat in vitro potency” value ([2]; 60 mg/kg, at Tmax) was 6.8 fold. It also gave a concentration at 2.5 h ([2]; Sprague-Dawley, brain, oral, 3 mg/kg, pretreatment time 2.5 hr, read-out: Brain Unbound @EOT) of 40 nM, a concentration at 6.5 h ([2]; Sprague-Dawley, brain, oral, 10 mg/kg, pretreatment time 6.5 hr, read-out: Brain Unbound @EOT) of 44 nM and a concentration at 15 h ([2]; Sprague-Dawley, brain, oral, 60 mg/kg, pretreatment time 15 hr, read-out: Brain Unbound @EOT) of 3 nM. The concentration at 30 h ([2]; Sprague-Dawley, brain, oral, 60 mg/kg, pretreatment time 30 hr, read-out: Brain Unbound @EOT) was 6 nM, the “free brain concentration over in vitro EC50” value (satellite PK for rat AHL; 3 mg/kg) was about 0.6 fold and the “free brain concentration over in vitro EC50” value (satellite PK for rat AHL; 10 mg/kg) was about 1.2 fold. The concentration at 2.5 h (satellite PK for rat AHL; 3 mg/kg) was 32 nM, the concentration at 2.5 h (satellite PK for rat AHL; 10 mg/kg) was 67 nM and the “metabolites of the furanyl ring” value ([3]; human liver microsomes) was “no metabolites corresponding to oxidation or opening of the furanyl ring were detected”. The “parent in 60 min samples” value ([3]; human liver microsomes) was “major component observed”, the “metabolites of the furanyl ring” value ([3]; rat liver microsomes) was “no metabolites corresponding to oxidation or opening of the furanyl ring were detected” and the “parent in 60 min samples” value ([3]; rat liver microsomes) was “major component observed”. The rat fuplasma [4] was 0.041 and the “CLhep, dog” value [5] was 23 mL/min/kg.
